In US20170022171A1, “2,5-DISUBSTITUTED CYCLOPENTANECARBOXYLIC ACIDS AND THEIR USE” (Bayer Pharma Aktiengesellschaft, priority 2014, published 2017) one finds IC50 data, which are given here for eleven molecules.

What all share (assay type): biochemical
In one assay the target is T1, MMP-9 (Homo sapiens, UniProt P14780).
T1 construct: purchased R&D Systems 911-MP
In words: In vitro MMP-9 inhibition test. An excerpt:
(§1) The MMP-mediated amidolytic cleavage of a suitable peptide substrate leads to an increase in fluorescent light here too. The signal intensity of the fluorescent light is directly proportional to the enzyme activity. The active concentration of a test compound at which half the enzyme is inhibited (50% signal intensity of the fluorescent light) is reported as the IC50 value.
(§2) Recombinant MMP-9 (from R&D Systems, 911-MP) is chemically activated in accordance with the manufacturer's instructions using APMA. 1 μl of the test compound to be analysed (as a solution in DMSO, suitable concentrations, for example, 1 nM to 30 μM) is pipetted into 24 μl of activated enzyme (final concentration, for example, 0.1 nM) in reaction buffer (50 mM Tris/HCl pH 7.5, 10 mM CaCl2, 150 mM NaCl, 0.05% Brij®-35) in a white 384-hole microtiter plate (MTP). The enzymatic reaction is started by adding the intramolecularly quenched Mca-Pro-Leu-Gly-Leu-Dpa(Dnp)-Ala-Arg-NH2 substrate (final concentration, for example, 10 μM; R&D Systems, ES-001), so as to result in a total test volume of 50 μl. The course of the MMP-9 reaction is measured by measuring the fluorescence intensity (excitation 320 nm, emission 410 nm) over a suitable period of time (for example over 120 min at a temperature of 32° C.).

Another assay has as its target T2, MMP-2 (Homo sapiens, UniProt P08253).
T2 construct: purchased R&D Systems 902-MP
T2 sequence (P08253 110-660): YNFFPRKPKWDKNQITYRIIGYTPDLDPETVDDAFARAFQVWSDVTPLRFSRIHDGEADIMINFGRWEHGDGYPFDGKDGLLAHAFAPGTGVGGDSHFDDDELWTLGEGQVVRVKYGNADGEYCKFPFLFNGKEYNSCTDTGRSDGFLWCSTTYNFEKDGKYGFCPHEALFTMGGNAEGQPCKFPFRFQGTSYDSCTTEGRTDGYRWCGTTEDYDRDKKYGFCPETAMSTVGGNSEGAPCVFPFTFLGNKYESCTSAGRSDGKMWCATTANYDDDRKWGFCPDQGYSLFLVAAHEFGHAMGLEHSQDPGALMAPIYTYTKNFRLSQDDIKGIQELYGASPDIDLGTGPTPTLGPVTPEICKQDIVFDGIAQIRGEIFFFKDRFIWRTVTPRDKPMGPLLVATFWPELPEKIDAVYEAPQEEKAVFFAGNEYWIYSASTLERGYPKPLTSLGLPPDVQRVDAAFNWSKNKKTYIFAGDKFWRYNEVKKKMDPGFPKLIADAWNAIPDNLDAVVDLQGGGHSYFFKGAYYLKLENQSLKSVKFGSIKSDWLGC
In words: In vitro MMP-2 inhibition test.
Text: as §1
as §2, with “MMP-2” for “MMP-9”, “902-MP)” for “911-MP)”, “2” for “0.1”

For another assay, the target named is T3, mouse MMP-9 (Mus musculus, UniProt P41245).
T3 construct: purchased R&D Systems 909-MP
In words: In vitro mouse MMP-9 inhibition test.
Text: as §1
as §2, with “Recombinant mouse” for “Recombinant”, “Systems, 909-MP)” for “Systems, 911-MP)”, “example, 5” for “example, 10”, “50” for “50 μl.”

In a further assay the target is T4, mouse MMP-2 (Mus musculus, UniProt P33434).
T4 construct: purchased R&D Systems 924-MP
The assay is described as follows: In vitro mouse MMP-2 inhibition test.
Text: as §1
as §2, with “Recombinant mouse MMP-2” for “Recombinant MMP-9”, “Systems, 924-MP)” for “Systems, 911-MP)”, “50” for “50 μl.”, “the MMP-2” for “the MMP-9”

As a reminder, the IC50 is the concentration at which inhibition is half-maximal. Higher therefore signals a need for much substance.

T3 sequence (P41245 108-730): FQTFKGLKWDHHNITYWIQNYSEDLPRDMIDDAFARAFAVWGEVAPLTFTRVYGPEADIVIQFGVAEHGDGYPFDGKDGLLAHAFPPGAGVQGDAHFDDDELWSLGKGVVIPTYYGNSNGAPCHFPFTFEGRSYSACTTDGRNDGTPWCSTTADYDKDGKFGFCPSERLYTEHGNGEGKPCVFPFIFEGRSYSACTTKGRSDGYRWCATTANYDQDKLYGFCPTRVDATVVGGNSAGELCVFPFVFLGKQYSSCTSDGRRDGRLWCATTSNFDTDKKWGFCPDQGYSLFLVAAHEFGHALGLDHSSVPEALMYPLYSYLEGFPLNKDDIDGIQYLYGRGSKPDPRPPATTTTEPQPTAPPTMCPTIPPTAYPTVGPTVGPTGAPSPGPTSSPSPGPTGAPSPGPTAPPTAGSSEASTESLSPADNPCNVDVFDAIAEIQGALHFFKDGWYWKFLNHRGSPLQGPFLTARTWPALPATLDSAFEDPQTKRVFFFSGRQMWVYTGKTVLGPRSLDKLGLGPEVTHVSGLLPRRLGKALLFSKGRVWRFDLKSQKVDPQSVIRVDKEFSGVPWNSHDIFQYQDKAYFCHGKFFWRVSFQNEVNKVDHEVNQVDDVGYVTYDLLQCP
T1 sequence (P14780 107-707 limits assumed): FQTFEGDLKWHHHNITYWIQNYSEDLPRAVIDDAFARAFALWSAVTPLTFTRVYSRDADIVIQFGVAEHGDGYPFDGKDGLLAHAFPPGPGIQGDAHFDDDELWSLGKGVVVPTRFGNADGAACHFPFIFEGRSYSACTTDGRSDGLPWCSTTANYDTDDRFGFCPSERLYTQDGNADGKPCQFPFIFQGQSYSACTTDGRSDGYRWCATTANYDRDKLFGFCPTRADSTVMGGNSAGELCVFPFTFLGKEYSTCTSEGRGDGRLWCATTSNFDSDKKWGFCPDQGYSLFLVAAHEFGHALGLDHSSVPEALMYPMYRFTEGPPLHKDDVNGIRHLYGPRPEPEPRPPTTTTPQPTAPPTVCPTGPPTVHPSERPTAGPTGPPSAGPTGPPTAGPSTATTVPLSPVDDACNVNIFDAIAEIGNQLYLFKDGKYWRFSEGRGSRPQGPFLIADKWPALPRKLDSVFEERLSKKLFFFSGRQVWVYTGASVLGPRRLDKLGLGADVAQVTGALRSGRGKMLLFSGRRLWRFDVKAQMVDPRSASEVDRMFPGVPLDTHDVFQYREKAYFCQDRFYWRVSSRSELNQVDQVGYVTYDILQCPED
T4 sequence (P33434 110-662): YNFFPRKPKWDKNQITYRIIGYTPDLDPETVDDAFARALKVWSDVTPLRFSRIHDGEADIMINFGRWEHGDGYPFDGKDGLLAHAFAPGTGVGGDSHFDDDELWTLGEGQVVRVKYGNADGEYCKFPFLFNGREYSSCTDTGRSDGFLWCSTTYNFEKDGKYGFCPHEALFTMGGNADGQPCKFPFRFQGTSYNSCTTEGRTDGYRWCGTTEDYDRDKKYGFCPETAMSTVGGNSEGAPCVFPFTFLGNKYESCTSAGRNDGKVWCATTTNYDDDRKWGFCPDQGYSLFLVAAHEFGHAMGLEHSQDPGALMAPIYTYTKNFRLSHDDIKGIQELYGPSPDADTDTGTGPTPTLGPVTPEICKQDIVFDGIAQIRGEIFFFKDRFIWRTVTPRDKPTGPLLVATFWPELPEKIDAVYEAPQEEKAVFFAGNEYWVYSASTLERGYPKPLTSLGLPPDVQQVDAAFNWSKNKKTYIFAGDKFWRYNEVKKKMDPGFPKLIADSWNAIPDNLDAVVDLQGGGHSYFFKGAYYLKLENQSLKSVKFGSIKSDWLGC

Take “(+)-(1RS,2RS,5SR)-2-{4-[(3,4-Dichlorobenzyl)oxy]benzoyl}-5-{[4-oxo-6-(trifluoromethyl)-1,2,3-benzotriazin-3(4H)-yl]methyl}cyclopentanecarboxylic acid [Example 28]”: the IC50 stood at 260 nM against MMP-9, 700 nM against MMP-2, 2500 nM on mouse MMP-9 and 1000 nM at mouse MMP-2.
Take `Cc1ccc2nnn(C[C@H]3CC[C@@H](C(=O)c4ccc(OCc5cccc(Cl)c5)cc4)[C@@H]3C(=O)O)c(=O)c2c1` (single isomer, unassigned) [Example 104, (+)-(1RS,2RS,5SR)-2-{4-[(3-Chlorobenzyl)oxy]benzoyl}-5-[(6-methyl-4-oxo-1,2,3-benzotriazin-3(4H)-yl)methyl]cyclopentanecarboxylic acid]: the IC50 against MMP-9 amounted to 110 nM; at MMP-2 it was 220 nM; on mouse MMP-9 it was 330 nM; at mouse MMP-2 it was 290 nM.
The like results for `O=C(O)[C@H]1[C@H](Cn2nnc3ccc(C(F)(F)F)cc3c2=O)CC[C@@H]1C(=O)c1ccc(SCc2ccc(Cl)c(Cl)c2)cc1` (racemic) [Example 79, (+/−)-(1RS,2RS,5SR)-2-{4-[(3,4-Dichlorobenzyl)sulphanyl]benzoyl}-5-{[4-oxo-6-(trifluoromethyl)-1,2,3-benzotriazin-3(4H)-yl]methyl}cyclopentanecarboxylic acid] were, in that order, 3200 nM, 4000 nM, 2100 nM and 5900 nM.
Turning to `COC(=O)Nc1cccc(COc2ccc(C(=O)[C@@H]3CC[C@H](Cn4nnc5ccc(C(F)(F)F)cc5c4=O)[C@H]3C(=O)O)cc2)c1` (stereo in doubt) [Example 31, (+)-(1RS,2RS,5SR)-2-[4-({3-[(Methoxycarbonyl)amino]benzyl}oxy)benzoyl]-5-{[4-oxo-6-(trifluoromethyl)-1,2,3-benzotriazin-3(4H)-yl]methyl}cyclopentanecarboxylic acid], the IC50 stood at 2100 nM against MMP-9, 830 nM on MMP-2, 4300 nM against mouse MMP-9 and 990 nM at mouse MMP-2.
In the case of `O=C(O)[C@H]1[C@H](Cn2nnc3ccccc3c2=O)CC[C@@H]1C(=O)c1ccc(OCc2cccc(Cl)c2)cc1` (racemic) [Example 2, (+/−)-(1RS,2RS,5SR)-2-{4-[(3-Chlorobenzyl)oxy]benzoyl}-5-[(4-oxo-1,2,3-benzotriazin-3(4H)-yl)methyl]cyclopentanecarboxylic acid], the IC50 worked out at 480 nM against MMP-9, 290 nM on MMP-2, 1100 nM against mouse MMP-9 and 400 nM against mouse MMP-2.
Take `O=C(O)[C@H]1[C@H](Cn2nnc3ccccc3c2=O)CC[C@@H]1C(=O)c1ccc(OCc2ccc(Cl)c(Cl)c2)cc1` (racemic) [Example 3, (+/−)-(1RS,2RS,5SR)-2-{4-[(3,4-Dichlorobenzyl)oxy]benzoyl}-5-[(4-oxo-1,2,3-benzotriazin-3(4H)-yl)methyl]cyclopentanecarboxylic acid]: the IC50 against MMP-9 worked out at 900 nM; against MMP-2, 190 nM; against mouse MMP-9 it was 2600 nM; against mouse MMP-2, 290 nM.
For `O=C(O)[C@H]1[C@H](Cn2nnc3ccc(C(F)(F)F)cc3c2=O)CC[C@@H]1C(=O)c1ccc(OCC2CCCCC2)cc1` (racemic) [Example 40, (+/−)-(1RS,2RS,5SR)-2-[4-(Cyclohexylmethoxy)benzoyl]-5-{[4-oxo-6-(trifluoromethyl)-1,2,3-benzotriazin-3(4H)-yl]methyl}cyclopentanecarboxylic acid], in that order: 170 nM, 440 nM, 640 nM and 570 nM.
Regarding `CCCCCCOc1ccc(C(=O)[C@@H]2CC[C@H](Cn3nnc4ccc(C)cc4c3=O)[C@H]2C(=O)O)cc1` (single isomer, unassigned) [Example 121, (+)-(1RS,2RS,5SR)-2-[4-(Hexyloxy)benzoyl]-5-[(6-methyl-4-oxo-1,2,3-benzotriazin-3(4H)-yl)methyl]cyclopentanecarboxylic acid], the IC50 against MMP-9 worked out at 57 nM; at MMP-2, 280 nM; against mouse MMP-9 it was 880 nM; on mouse MMP-2, 420 nM.
As for `O=C(O)[C@H]1[C@H](Cn2nnc3ccccc3c2=O)CC[C@@H]1C(=O)c1ccc(OCc2ccc(F)cc2)cc1` (racemic) [Example 1, (+/−)-(1RS,2RS,5SR)-2-{4-[(4-Fluorobenzyl)oxy]benzoyl}-5-[(4-oxo-1,2,3-benzotriazin-3(4H)-yl)methyl]cyclopentanecarboxylic acid], the IC50 against MMP-9 was 4.7 nM; against MMP-2, 9.3 nM; against mouse MMP-9, 31 nM; against mouse MMP-2 it was 14 nM.
Regarding `O=C(O)[C@@H]1[C@@H](Cn2nnc3ccc(C(F)(F)F)cc3c2=O)CC[C@H]1C(=O)c1ccc(OCC2CCCCC2)cc1` (single isomer, unassigned) [Example 41, (+)-(1RS,2RS,5SR)-2-[4-(Cyclohexylmethoxy)benzoyl]-5-{[4-oxo-6-(trifluoromethyl)-1,2,3-benzotriazin-3(4H)-yl]methyl}cyclopentanecarboxylic acid], the IC50 against MMP-9 is 51 nM; against MMP-2, 97 nM; at mouse MMP-9, 220 nM; against mouse MMP-2, 180 nM.
On to `CCCCCOc1ccc(C(=O)[C@H]2CC[C@@H](Cn3nnc4ccc(C)cc4c3=O)[C@@H]2C(=O)O)cc1` (racemic) [Example 123, (+/−)-(1RS,2SR,5RS)-2-[(6-Methyl-4-oxo-1,2,3-benzotriazin-3(4H)-yl)methyl]-5-[4-(pentyloxy)benzoyl]cyclopentanecarboxylic acid], for which the IC50 against MMP-9 stood at 94 nM; at MMP-2, 170 nM; against mouse MMP-9, 770 nM; at mouse MMP-2, 370 nM.
